The text below walks through data of patent US12590121B2, “Peptide compound with repetitive sequences” (KING ABDULLAH UNIVERSITY OF SCIENCE AND TECHNOLOGY, priority 2020, dated 2026).

Data set [1] can be described thus: Viscoelastic characterization: mechanical stiffness of peptide hydrogels (rheometer). The format is physicochemical. As for the experimental part: The viscoelastic characteristics of peptide hydrogels, including the mechanical stiffness and viscosity, are analyzed using TA Ares-G2 Rheometer equipped with advanced Peltier system (APS). The mechanical stiffness of the peptide gels is measured using an 8 mm parallel plate with a gap of 1.8 mm, between the upper and lower plates, and at 22° C. The hydrogels are prepared, one day before the measurement, by mixing 135 μl of peptide solution, and 15 μl of 10×PBS inside a 9 mm internal diameter Sigmacote® coated glass casting ring. The rings are then kept inside Petri dishes at room temperature with water surrounding and tightly sealed to avoid dehydration. For each peptide, six replicates are prepared to control the accuracy of the measurements. The stiffness is analyzed through three successive tests, which are time-sweep, frequency-sweep, and amplitude-sweep. Time-sweep is first performed for 5 minutes with angular frequency and a strain of 1 rad/s and 0.1%, respectively. A frequency sweep is subsequently performed on the sample for a range of angular frequency of 0.1-100 rad/s with the same strain of 0.1%. The tests are completed with the amplitude sweep by applying a gradual increase of strain from 0.01% to 100% at 1 rad/s angular frequency.

The nature of data set [2]: Peptide gelation studies (vial inversion method). The note with it: for gelation time: 1×PBS buffer; for minimum gelation concentration: as used for 3D cell culture. The format is physicochemical. As for the experimental part: The peptide powder is dissolved in 0.90 mL of Milli-Q® water and vortexed until a clear and homogeneous solution is observed. Then 0.10 mL of 10×PBS buffer (w/o Ca^2+ and Mg^2+) is added to the peptide solution. The glass vial is kept undisturbed, and the hydrogel formation is observed using the vial inversion method. The time and minimum concentration at which each peptide has formed a hydrogel are noted.

Data set [3] is described as follows: Viscosity of peptide solution before and after gelation (rheometer, flow experiment). Type of data set: physicochemical. As to the method: The viscosity of the peptide solution before and after gelation is determined using the same rheometer, 25 mm parallel plate geometry, and a gap of 0.5 mm at 25° C. For the peptide solution, 250 μl of 13 mg/mL peptide solution is dropped on the Peltier plate and measured. For peptide gel samples, the peptide solution and 10×PBS buffer are mixed with the ratio of 1:10 on the Peltier plate and directly measured. The flow experiment is set up by starting the shear rate from 0.1 to 1500 s-1 for a 200-seconds duration. The value of the shear rate that we choose for our printing system is calculated using the equation below: 51
[formula] • γ: shear rate (s−1); Q: flow rate (95 μL/s); d: diameter of needle (0.514 mm).

For data set [4], the system named is human dermal fibroblasts (hDF). Type of data set: cell-based. As to the method: hDF is used in bioprinting experiments. Each cell type is cultured in its complete growth media, as described before, and cells at passages 4-8 are used in printing experiments. For bioprinting, hDF is mixed with PBS at a final concentration of 5×10^6 and 8×10^6 cells/ml, respectively, and loaded into the microfluidic tubing of the robotic arm bioprinter. In the printing process, the flow rates are 10 μl/min, 55 μl/min, and 8 μl/min for cells, peptide solution, and 5×PBS, respectively. Different cell-laden structures are printed including cuboids with 10 mm edges and 2.6 mm height, and cylinders with 10 mm diameter, and a height of 10 mm. After printing, the printed cell-laden constructs are placed in the CO2 incubator for 5 min before the addition of complete growth media. The printed cell-laden constructs are placed in standard conditions (37° C., 5% CO2, and 95% relative humidity), and the media are changed every three days.
LIVE/DEAD® Cell Viability/Cytotoxicity Kit (ThermoFisher®, USA) is used to assess the viability of cells within the 3D printed constructs. The same protocol, as described earlier, is followed except for increasing the incubation time to 1 hour. The viability of cells is assessed immediately after printing, within 1 hour, designated as day 0 and at days 3, 7, 17 and 24 post-printing. For each time point, two cell-laden constructs are analyzed, and images are taken from different areas of the construct, including the center, edges, top, and bottom. Stained printed cell-laden constructs are imaged using an inverted laser scanning confocal microscope (Zeiss™ LSM 880 Inverted Confocal Microscope, Germany). The number of live and dead cells are counted using imageJ software, and the percentage of cell viability is calculated as the average ratio of live to total cells.

Where [5] appears, read: gel, 13 mg/ml, shear rate 29.7 s^−1.

Non-standard residues stand in square brackets, D forms with d. Residues, ends and D or L forms follow the SMILES beside them. Cha = N[C@@H](CC1CCCCC1)C(=O)O

With `CC[C@H](C)[C@H](NC(C)=O)C(=O)N[C@H](C(=O)N[C@@H](Cc1ccccc1)C(=O)N[C@@H](CCCCN)C(N)=O)[C@@H](C)CC` [IIFK, Ac-Ile-Ile-Phe-Lys-NH2] (Ac-IIFK-NH2), the “Loss Modulus (G′)” value was determined as 0.13 ± 0.04 kPa in data set [1] (1 mg/mL hydrogel); 1.31 ± 0.12 kPa in data set [1] (2 mg/mL hydrogel); 2.39 ± 0.11 kPa in data set [1] (5 mg/mL hydrogel); 5.00 ± 0.31 kPa in data set [1] (8 mg/mL hydrogel); 9.04 ± 0.56 kPa in data set [1] (10 mg/mL hydrogel); 8.90 ± 0.36 kPa in data set [1] (13 mg/mL hydrogel). Besides, the “Storage Modulus (G′)” value amounted to 1.25 ± 0.86 kPa in data set [1] (1 mg/mL hydrogel); 14.45 ± 1.37 kPa in data set [1] (2 mg/mL hydrogel); 27.26 ± 1.30 kPa in data set [1] (5 mg/mL hydrogel); 49.74 ± 5.02 kPa in data set [1] (8 mg/mL hydrogel); 94.18 ± 7.12 kPa in data set [1] (10 mg/mL hydrogel); 108.21 ± 5.02 kPa in data set [1] (13 mg/mL hydrogel). Besides, the “tan δ (G″/G′)” value in data set [1] (1 mg/mL hydrogel) is given as 0.10; in data set [1] (2 mg/mL hydrogel) it was 0.09; in data set [1] (5 mg/mL hydrogel) it was 0.09; in data set [1] (8 mg/mL hydrogel) it was 0.10; in data set [1] (10 mg/mL hydrogel), 0.10; in data set [1] (13 mg/mL hydrogel), 0.08. Also, the gelation time entry is recorded as “less than 2.5 h” in data set [2] (1 mg/ml) and “less than 3 min” in data set [2] (10 mg/ml). The compound also gave a minimum gelation concentration in data set [2] of 2 mg/mL. The Viscosity in data set [3] (setting [5]) was 0.56 Pa · s; in data set [3] (solution, 13 mg/mL), 0.09 Pa · s. In addition, the “cell viability in the center versus the edge of the filled cube structure” value in data set [4] is “no difference”.

As for `CC[C@H](C)[C@H](NC(C)=O)C(=O)N[C@H](C(=O)N[C@@H](CC1CCCCC1)C(=O)N[C@@H](CCCCN)C(N)=O)[C@@H](C)CC` [IIZK, Ac-Ile-Ile-Cha-Lys-NH2] (Ac-II[Cha]K-NH2), the “Loss Modulus (G′)” value in data set [1] (1 mg/mL hydrogel) amounted to 0.88 ± 0.04 kPa; in data set [1] (2 mg/mL hydrogel), 2.02 ± 0.09 kPa; in data set [1] (5 mg/mL hydrogel), 7.08 ± 0.59 kPa; in data set [1] (8 mg/mL hydrogel) it was 10.91 ± 0.44 kPa; in data set [1] (10 mg/mL hydrogel), 15.54 ± 0.68 kPa; in data set [1] (13 mg/mL hydrogel), 37.76 ± 2.38 kPa. In addition, the “Storage Modulus (G′)” value in data set [1] (1 mg/mL hydrogel) is on record as 6.52 ± 0.18 kPa; in data set [1] (2 mg/mL hydrogel) it was 16.82 ± 0.72 kPa; in data set [1] (5 mg/mL hydrogel), 64.74 ± 4.89 kPa; in data set [1] (8 mg/mL hydrogel) it was 89.40 ± 1.86 kPa; in data set [1] (10 mg/mL hydrogel), 134.04 ± 5.99 kPa; in data set [1] (13 mg/mL hydrogel), 271.34 ± 35.09 kPa. Further, the “tan δ (G″/G′)” value in data set [1] (1 mg/mL hydrogel) is reported as 0.13; in data set [1] (2 mg/mL hydrogel), 0.12; in data set [1] (5 mg/mL hydrogel) it was 0.11; in data set [1] (8 mg/mL hydrogel), 0.12; in data set [1] (10 mg/mL hydrogel), 0.12; in data set [1] (13 mg/mL hydrogel), 0.14. In data set [2] (1 mg/ml), the gelation time result was “less than 7 min”. The same compound gave a minimum gelation concentration in data set [2] of 1 mg/mL. The Viscosity in data set [3] (setting [5]) came to 0.47 Pa · s; in data set [3] (solution, 13 mg/mL), 0.03 Pa · s. The “cell viability in the center versus the edge of the filled cube structure” value in data set [4] was “slightly lower”.

Consider `CC[C@H](C)[C@H](NC(C)=O)C(=O)N[C@@H](CC1CCCCC1)C(=O)N[C@@H](CC1CCCCC1)C(=O)N[C@@H](CCCCN)C(N)=O` [IZZK, Ac-Ile-Cha-Cha-Lys-NH2] (Ac-I[Cha][Cha]K-NH2), for which the “Loss Modulus (G′)” value in data set [1] (1 mg/mL hydrogel) worked out at 0.36 ± 0.08 kPa; in data set [1] (2 mg/mL hydrogel), 1.44 ± 0.07 kPa; in data set [1] (5 mg/mL hydrogel), 11.60 ± 0.51 kPa; in data set [1] (8 mg/mL hydrogel), 29.70 ± 1.54 kPa; in data set [1] (10 mg/mL hydrogel) it was 39.71 ± 1.50 kPa; in data set [1] (13 mg/mL hydrogel), 54.56 ± 1.46 kPa. For the same compound, the “Storage Modulus (G′)” value turned out to be 3.71 ± 0.19 kPa in data set [1] (1 mg/mL hydrogel); 15.53 ± 0.74 kPa in data set [1] (2 mg/mL hydrogel); 85.87 ± 6.50 kPa in data set [1] (5 mg/mL hydrogel); 193.09 ± 10.13 kPa in data set [1] (8 mg/mL hydrogel); 222.13 ± 8.16 kPa in data set [1] (10 mg/mL hydrogel); 314.91 ± 10.10 kPa in data set [1] (13 mg/mL hydrogel). Further, the “tan δ (G″/G′)” value came to 0.10 in data set [1] (1 mg/mL hydrogel); 0.09 in data set [1] (2 mg/mL hydrogel); 0.14 in data set [1] (5 mg/mL hydrogel); 0.15 in data set [1] (8 mg/mL hydrogel); 0.18 in data set [1] (10 mg/mL hydrogel); 0.17 in data set [1] (13 mg/mL hydrogel). Moreover, the Viscosity is on record as 0.48 Pa · s in data set [3] (setting [5]) and 0.06 Pa · s in data set [3] (solution, 13 mg/mL). Also, in data set [4], the “cell viability in the center versus the edge of the filled cube structure” value is on record as “slightly lower”.

On to “FFFK: ultrashort amphiphilic peptide, one-letter amino acid sequence (Ac-FFFK-NH2)”, for which the gelation time in data set [2] (2 mg/ml) is less than 15 min; in data set [2] (3 mg/ml), less than 10 min; in data set [2] (4 mg/ml) it was less than 5 min; in data set [2] (5 mg/ml), less than 5 min; in data set [2] (10 mg/ml), less than 2 min. Besides, in data set [2] (20 mg/ml), the “gelation time (in words)” value is reported as “simultaneously”.

In the case of “FFIK: ultrashort amphiphilic peptide, one-letter amino acid sequence (Ac-FFIK-NH2)”, the “gelation (in words)” value in data set [2] (1 mg/ml, in 1 h) is on record as “Does not gel”. In addition, the gelation time in data set [2] (2 mg/ml) is listed as less than 10 min; in data set [2] (3 mg/ml), less than 10 min; in data set [2] (5 mg/ml) it was less than 5 min; in data set [2] (10 mg/ml), less than 5 min; in data set [2] (20 mg/ml), less than 5 min.

Regarding “FIIK: ultrashort amphiphilic peptide, one-letter amino acid sequence (Ac-FIIK-NH2)”, in data set [2] (1 mg/ml), the “gel quality (in words)” value is “Soft gel”. Besides, the gelation time was less than 15 min in data set [2] (1 mg/ml); less than 5 min in data set [2] (2 mg/ml); less than 10 min in data set [2] (3 mg/ml); less than 10 min in data set [2] (5 mg/ml); less than 5 min in data set [2] (10 mg/ml); less than 5 min in data set [2] (20 mg/ml).

In the case of “IFFK: ultrashort amphiphilic peptide, one-letter amino acid sequence (Ac-IFFK-NH2)”, in data set [2] (1 mg/ml), the “gel quality (in words)” value was “Slightly”. Further, the gelation time in data set [2] (1 mg/ml) is more than 60 min; in data set [2] (2 mg/ml), less than 10 min; in data set [2] (3 mg/ml), less than 5 min; in data set [2] (4 mg/ml) it was less than 5 min; in data set [2] (5 mg/ml) it was less than 5 min; in data set [2] (10 mg/ml) it was less than 5 min. The gelation time in data set [2] (20 mg/ml) is listed as less than 5 min.

As for “ZIIK: ultrashort amphiphilic peptide, one-letter sequence; Z is cyclohexylalanine (Ac-[Cha]IIK-NH2; SMILES CC[C@H](C)[C@H](NC(=O)[C@H](CC1CCCCC1)NC(C)=O)C(=O)N[C@H](C(=O)N[C@@H](CCCCN)C(N)=O)[C@@H](C)CC)”, the “gel quality (in words)” value in data set [2] (1 mg/ml) is reported as “Very soft gel”. For the same compound, the gelation time in data set [2] (1 mg/ml) was less than 60 min; in data set [2] (2 mg/ml) it was less than 10 min; in data set [2] (5 mg/ml), less than 10 min; in data set [2] (10 mg/ml), less than 5 min; in data set [2] (20 mg/ml), less than 5 min.
